Source: patent US20230240288A1, “FRUIT TREE POLLINATION METHOD FOR PREVENTING AND CONTROLLING ERWINIA AMYLOVORA-CAUSED DISEASE” (ZHEJIANG UNIVERSITY, priority 2022, published 2023)
Converted amounts (≈) assume the structure as drawn.

Experiments:
[1] = system: Erwinia amylovora XJSZ0102; test: Inhibition zone (filter paper) method, high-concentration screening of 52 agents; type: cell-based; conditions: results of filter paper method and turbidimetry; at a high concentration
[2] = system: Erwinia amylovora XJSZ0102; test: Toxicity of bactericides against Erwinia amylovora (growth inhibition OD600, EC50 regression)
Erwinia amylovora [3] = test: Orchard pollination test (I): liquid pollination, bacteria-carrying pollen, disease-free bergamot pear trees; conditions: artificial pollination with pollen suspension containing the agent
Description: 10 g of xanthan gum was dissolved in 2.5 L of continuously-boiling water and cooled to obtain a solution I; 6.5 kg of white sugar was dissolved with 10 L of hot water to obtain a solution II; 25 g of calcium nitrate and 5 g of boric acid were dissolved in 0.5 L of water to obtain a solution III; the above three solutions were poured into a large container, then added with 30 L of water, and stirred well to prepare a nutrient solution for later use.
Each agent was diluted with water to form a stock solution, and 100 mL of the stock solution was added to 9.9 L of the nutrient solution, fully stirred and mixed, such that a final concentration of the agent in the nutrient solution was shown in Table 7, and 9 groups of agent treatments were obtained in total.
4 g of the pollen was added to 4 L of a prepared nutrient solution containing the agent, stirred to make the pollen evenly dispersed to prepare a pollen suspension, which was then pollinated by spraying with a shoulder-back electric sprayer. The pollination period was at 40% blooming and at 80% blooming separately, each tree was sprayed with 1 L of the pollen suspension, and each agent treatment group was sprayed to pollinate 3 trees. […] 2 weeks after pollination, a fruit setting rate and the number of flower rot and diseased fruit were counted to calculate an incidence.

Erwinia amylovora [4] = test: Orchard pollination test (II): liquid pollination, bacteria-free pollen, orchard with moderate pear fire blight; conditions: artificial pollination with pollen containing the agent, moderate occurrence orchard
Description: 10 g of xanthan gum was dissolved in 2.5 L of continuously-boiling water and cooled to obtain a solution I; 6.5 kg of white sugar was dissolved with 10 L of hot water to obtain a solution II; 25 g of calcium nitrate and 5 g of boric acid were dissolved in 0.5 L of water to obtain a solution III; the above three solutions were poured into a large container, then added with 30 L of water, and stirred well to prepare a nutrient solution for later use. […]
4 g of the pollen was added to 4 L of a prepared nutrient solution containing the agent, stirred to make the pollen evenly dispersed to prepare a pollen suspension, which was then pollinated by spraying with a shoulder-back electric sprayer. […] A pollen suspension prepared with water instead of the agent was set as a positive control group, and the pollen suspension prepared with water instead of the agent and sprayed on disease-free trees was set as a negative control group, and 3 trees were treated by each group.2 weeks after pollination, a fruit setting rate and the number of flower rot and diseased fruit were counted to calculate an incidence.

[5] = Erwinia amylovora, XJSZ0102, 24 h, read-out: Inhibition rate (%)

Molecule: CCCSc1ccc2nc(NC(=O)OC)[nH]c2c1 [Albendazole, albendazole]
- bacteriostatic effect on Erwinia amylovora [1]: desirable bacteriostatic effect
- EC50 ([2]; Erwinia amylovora, XJSZ0102, 24 h): 0.022 µg/mL (≈ 0.0829 µM)
- inhibition at 0.0125 µg/mL [2, 5]: 15.2%
- inhibition at 0.0175 µg/mL [2, 5]: 33%
- inhibition at 0.025 µg/mL [2, 5]: 54.6%
- inhibition at 0.035 µg/mL [2, 5]: 82%
- inhibition at 0.05 µg/mL [2, 5]: 95.4%
- incidence of flower rot and fruit rot caused by pear fire blight, compared with positive control (Erwinia amylovora [3]): significantly lower incidence than that of the positive control
- incidence of pear fire blight-based flower rot and fruit rot, compared with positive control group (Erwinia amylovora [4]): significantly lower than that of the positive control group

Molecule: zhongshengmycin
- bacteriostatic effect on Erwinia amylovora [1]: desirable bacteriostatic effect
- Inhibition rate (%) ([2]; concentration 0.100 mg/L, 24 h): 28.58%
- Inhibition rate (%) ([2]; concentration 0.160 mg/L, 24 h): 40.31%
- Inhibition rate (%) ([2]; concentration 0.256 mg/L, 24 h): 56.63%
- Inhibition rate (%) ([2]; concentration 0.410 mg/L, 24 h): 66.08%
- Inhibition rate (%) ([2]; concentration 0.655 mg/L, 24 h): 81.07%
- EC50 ([2]; toxic regression analysis of bacteriostasis rate, 24 h): 0.22 µg/mL
- incidence of flower rot and fruit rot caused by pear fire blight, compared with positive control (Erwinia amylovora [3]): significantly lower incidence than that of the positive control
- incidence of pear fire blight-based flower rot and fruit rot, compared with positive control group (Erwinia amylovora [4]): significantly lower than that of the positive control group
